Source: US20160051567A1, “PREVENTION AND TREATMENT OF KIDNEY DAMAGE” (METSELEX, INC., priority 2013, published 2016)

How the values were obtained:
[1] = test system: p38; test: Western blot for p-p38 in kidney after AKI; format: in vivo; settings: rat kidney after AKI, TUDCA vs vehicle group
Method: (§1) Rat model of AKI: All experiments were performed in accordance with the Institutional Animal Care and Use Committee. Six to eight week old Sprague-Dawley rats were anaesthetized by isoflurane gas, a midline abdominal incision was made, and bilateral renal pedicles were clamped for 45 minutes maintaining body temperature at 37° C. After removing the clamps, the abdomen was closed in two layers by using 4-0 absorbable sutures and Reflex 9 mm clips. Blood samples were obtained daily by tail vein puncture. Blood urea levels were measured by the improved Jung method using the QuantiChrom™ Urea Assay Kit as per manufacturer's protocol. Kidneys were harvested five days following surgery.
Administration of TUDCA: 200 mg/mL of TUDCA (Sigma) was dissolved in phosphate buffered saline at pH 7.5. […]
Protein extraction: Frozen kidney tissue was ground in liquid nitrogen using a pestle and mortar. […] The amount of protein present in the solution was quantified by the Bicinchoninic Acid Protein Assay kit as per manufacturer's protocol.
Western blot analysis: 20 μg of protein was mixed with SDS-PAGE sample buffer, boiled for 5 minutes, electrophoresed on a 12% Tris-HCl SDS-PAGE gel for 1 hour at 200 V, and electroblotted onto a nitrocellulose membrane. […] The immunoblot was detected using SuperSignal West Femto Maximum Sensitivity Substrate Kit. […]

[2] = test system: rat model of AKI; test: Histological injury score (PAS stain) of kidney sections after AKI; format: in vivo; settings: five days after AKI, 400 mg/kg/day
Method: as §1
Administration of TUDCA: 200 mg/mL of TUDCA (Sigma) was dissolved in phosphate buffered saline at pH 7.5. 400 mg/kg of TUDCA or equal volume of vehicle was administered to rats by daily intraperitoneal injection from three days prior to surgery […] to five days (day 5) following surgery. The TUDCA dose was based on previous studies and its solubility at physiological pH.
(§2) Histology and TUNEL assay: 4% paraformaldehyde-fixed, paraffin-embedded 5 μm kidney sections were stained with Periodic acid-Schiff (PAS) stain using standard methods. Histological examination was performed by a renal pathologist in a blinded fashion. Histological injury was scored based on the percentage of tubular cell necrosis, dilation, and cell detachment as per the PAS protocol. Reagents for the PAS assay were purchased from Sigma-Aldrich (St. Louis, Mo.) and the accompanying protocol was used. […] Apoptotic cells were detected by TUNEL assay using an APO-DIRECT™ kit as per manufacturer's protocol. The average injury score and percentage of TUNEL-positive cells from the renal cortex (superficial and deep), medulla (outer and inner), and papilla were counted and calculated separately and averaged to obtain the total score. […]

[3] = test system: cell culture; settings: has been shown; cited from earlier work
[4] = test system: human renal proximal tubular epithelial cells (RPTE); test: Cytotoxicity assay (MultiTox-Glo) in RPTE cells; format: cell-based; settings: 24 hours
Method: Cell culture: RPTE cells were grown in Renal Epithelial Cell Basal Medium (REBM) with full supplements at 37° C. in 5% CO2 incubator as per supplier's instructions. RPTE cells were able to proliferate for 6-8 passages under the culture conditions.
Viability and Cytotoxicity Assays: Cytotoxicity and viability were determined using MultiTox-Glo Multiplex Cytotoxicity Assay kit as per manufacturer's protocols. RPTE cells were seeded in 96-well culture plates at a density of 1.2×10^4 cells per well. Subsequently, TUDCA was added to the wells to achieve final concentrations of 15, 150, 300, 450, 600, and 1200 μM. Following 24 hours of culture, to determine viability, 50 μL of GF-AFC Reagent was added to each well. The plates were gently shaken and incubated at 37° C. for 30 minutes in the dark. The cell viability was determined by measuring fluorescence at 400 nmEx/505 nmEm. Subsequently, to determine cytotoxicity, 50 μL of AAF-Glo Reagent was added to each well. The plates were shaken gently and incubated at room temperature for 15 minutes in the dark. Cytotoxicity was determined by measuring luminescence as per manufacturer's protocol.

[5] = test system: rat model of AKI; test: TUNEL assay of kidney sections after AKI; format: in vivo
Method: as §1, with “surgery. […]” for “surgery.”
as §2, with “Histological examination was performed by a renal pathologist in a blinded fashion.” left out, “protocol.” for “protocol. Reagents for the PAS assay were purchased from Sigma-Aldrich (St. Louis, Mo.) and the accompanying protocol was used.”

Compound: C[C@H](CCC(=O)NCCS(=O)(=O)O)[C@H]1CC[C@H]2[C@@H]3[C@@H](O)C[C@@H]4C[C@H](O)CC[C@]4(C)[C@H]3CC[C@]12C [TUDCA, tauroursodeoxycholic acid]
- amount of p-p38 [1]: No difference
- histological injury vs vehicle-treated rats ([2]; deep cortex, p<0.001): significantly less injury
- histological injury vs vehicle-treated rats ([2]; medulla or papilla): no differences
- histological injury vs vehicle-treated rats ([2]; superficial cortex, p<0.05): significantly less injury
- safe concentrations in cell culture experiments [3]: safe in concentrations ranging from 100 nM up to 5 mM
- cytotoxicity ([4]; 1200 μM, p<0.05): cytotoxic
- cytotoxicity ([4]; 15 to 600 μM): did not cause cytotoxicity
- TUNEL-positive cells vs vehicle-treated rats ([5]; outer strip of the outer medulla, p<0.001): significantly less TUNEL-positive cells
- TUNEL-positive cells vs vehicle-treated rats ([5]; superficial and deep cortices, p<0.05): significantly less TUNEL-positive cells
